The values that follow come from patent US20230248775A1, “GENETIC MODIFICATION OF MAMMALIAN CELLS TO CONFER RESISTANCE TO CSF1R ANTAGONISTS” (THE REGENTS OF THE UNIVERSITY OF CALIFORNIA, priority 2021, published 2023).

Structures are written as SMILES. “Also recorded” adds a separate entry of the source.

One test concerns G795C iPSC-microglia. Kind of test: Cell death assay (fluorogenic caspase 3/7, IncuCyte time-lapse imaging), G795C microglia. The note with it: 250 nM, 500 nM, 1 μm, 24 hours, compared to DMSO control. In kind it is cell-based, human. From the text: (§1) FIGS. 4A, 4B, 4C, 4D, and 4E show human stem cell-derived microglia are also susceptible to and killed by CSF1R inhibition in vitro. […] Images captured on Incucyte S3 live-cell imager. […] Images captured on Incucyte S3 live-cell imager. […] Images captured on Incucyte S3 live-cell imager. […] Images captured on Incucyte S3 live-cell imager. […] For all panels, n=4 images in six independent wells were quantified. Data represented as mean values±SEM.
(§2) Strategy 1: A crystal structure of the CSF1R receptor bound to an antagonist (PMID: 31434879) to predict amino acid substitutions that may sterically hinder the binding of CSF1R antagonists while not impairing the normal binding of ATP into the same binding pocket. The crystal structure of PLX5622 bound to human CSF1R was obtained and the ATP binding pocket was examined (FIG. 7A). Through molecular modeling single amino acid changes were predicted that would likely impair the binding of PLX5622 or PLX3397 or other CSF1R antagonists while not disrupting normal ATP binding to CSF1R. […] Other mutations could also be explored to prevent binding (FIG. 7D). […] The resulting iPSCs were then differentiated into microglia and exposed to varying concentrations of either PLX3397 or PLX5622. To detect microglial cell death (apoptosis) a caspase-3/7 fluorogenic reporter was used. […] FIG. 4F provided representative images of cell density (phase-contrast microscopy, 1st column) and fluorescent Caspase-3/7 activity (2nd column) across each dose of PLX3397 and PLX5622.
(§3) Resistance to each of the CSF1R inhibitors tested was quantified using a fluorogenic caspase 3/7 detector (Essen BioScience) and time-lapse imaging over 24 hours.
(§4) Cell death assay: iPS-microglia were plated at 70K cells per 96-well plate (6 wells per line per condition). At time 0, all microglia were treated with IncuCyte Caspase-3/7 Green Apoptosis Assay Reagent 1:1000. Cells were maintained in the described medium: fresh complete medium+0.1% DMSO, complete media+250 nM PLX3397, complete medium+500 nM PLX3397, complete medium+[…] PLX3397, complete medium+250 nM PLX5622, complete medium+500 nM PLX5622, complete medium +[…] PLX5622, complete medium+250 nM Edicotinib, complete medium+500 nM Edicotinib, complete medium +1 μm Edicotinib, complete medium+250 nM BLZ945, complete medium+500 nM BLZ945, complete medium +1 μm BLZ945. Four 20× images per well were collected every hour for 24 hours. Using IncuCyte 2020B software, image masks for phase confluence (visually gated out apoptotic cells) as well as caspase 3/7 signal (green) were generated. Graphs display caspase normalized to phase confluence, completed with 3 lines: WT, G795A, G795C (see FIGS. 4A, 4B, 4C, 4D, and 4E).

In test [1] the test system is wild-type (WT) unedited human iPSC-microglia. Briefly: Cell death assay (fluorogenic caspase 3/7, IncuCyte time-lapse imaging), WT microglia. The format is cell-based. The note with it: 250 nM, 500 nM, 1 μm, 24 hours, compared to DMSO control.
Excerpt: as §1, §2, §3, §4

For test [2], the system named is wild-type (WT) iPSC-microglia. Briefly: LIVE/DEAD two-color viability/cytotoxicity, WT microglia. The format is cell-based, human. The note with it: 500 nM or 1 uM, 24 hours. On the procedure: (§5) FIGS. 5A and 5B show G795A iPSC-derived microglia are resistant to CSF1R antagonist-induced cell death. As cells can die from processes other than caspase-mediated apoptosis, it is important to determine whether the G795A mutation provides a more broad-based resistance to any form of cell death induced by CSF1R antagonists, Therefore, G795A and wild-type (WT) iPSC-microglia were treated for 24 hours with either 500 nM (FIG, 5A) or 1 uM (FIG. 5B) of DMSO vehicle control or one of four CSF1R antagonists; PLX3397, PLX5622, Edicotinib, and BLZ945. The percent of live versus dead cells was then quantified using a two-color viability/cytotoxicity approach (Thermo L3224; LIVE/DEAD™ Viability/Cytotoxicity Kit). Very few dead microglia are observed 24 hours after treatment with DMSO. […] Live cells are denoted with a circle, […]

Test [3] deals with G795A iPSC-microglia. Briefly: LIVE/DEAD two-color viability/cytotoxicity, G795A microglia. The format is cell-based, human. The note with it: 500 nM or 1 uM, 24 hours. On the procedure: as §5
Test [4] concerns G795A iPSC-microglia. Kind of test: Cell death assay (fluorogenic caspase 3/7, IncuCyte time-lapse imaging), G795A microglia. The note with it: 250 nM, 500 nM, 1 μm, 24 hours, compared to DMSO control. The format is cell-based, human.
Excerpt: as §1, §2, §3, §4

A further test concerns G795A xMGs. Briefly: PLX3397 chow treatment of xenotransplanted mice, G795A xMGs (IBA-1/Ku80/Ki67 immunohistochemistry). In kind it is in vivo, human. The note with it: 600 mg/kg of PLX3397 in rodent chow ad libitum, 4 weeks. From the text:
(§6) FIGS. 11A, 11B, 11C, 11D, 11E, 11F, 11G, 11H, 11I, and 11J show G795A iPSC-derived microglia are resistant to CSF1R […] treatment and enable robust engraftment of human microglia within the adult mammalian brain. Xenotransplantation-compatible mice received bilateral stereotactic intrahippocampal injections of 500,000 iPSC-derived human microglia (xMGs) at 2-months of age. Mice received xMGs differentiated from either a homozygous CSF1R-resistant G795A human iPSC line or an isogenic unmodified Wild-Type human i PSC. At fours of age, mice were treated with 600 mg/kg of PLX3397 in rodent chow ad libitum for 4 weeks duration. Mice were then sacrificed, and half-brains were examined by fluorescent immunohistochemistry and confocal microscopy.

Another test deals with wild-type human xMGs. Kind of test: PLX3397 chow treatment of xenotransplanted mice, wild-type xMGs (IBA-1/Ku80/Ki67 immunohistochemistry). In kind it is in vivo, mouse. The note with it: 600 mg/kg of PLX3397 in rodent chow ad libitum, 4 weeks.
Excerpt: as §6

For test [5], the system named is MUT1 (i.e., G795A) microglia. Briefly: RNA-seq transcriptomic response to PLX5622, MUT1 (G795A) microglia. The format is cell-based, human. The note with it: 24-hour treatment, compared to DMSO-treated cells. From the text: (§7) FIGS. 2A, 2B, 2C, 2D, 2E, and 2F show selected CSF1R mutations have little effect on transcriptomic signature while simultaneously imparting resistance to PLX5622.

Test [6] has as its system MUT2 (i.e., G795C) microglia. Briefly: RNA-seq transcriptomic response to PLX5622, MUT2 (G795C) microglia. In kind it is cell-based, human. The note with it: 24-hour treatment, compared to DMSO-treated cells.
Excerpt: as §7

A further test deals with WT microglia. Kind of test: RNA-seq transcriptomic response to PLX5622, WT microglia. In kind it is cell-based, human. The note with it: 24-hour treatment, compared to DMSO-treated cells.
Excerpt: as §7

`CC1(C)CC=C(c2nc(C3CC(C)(C)OC(C)(C)C3)ccc2NC(=O)c2nc(C#N)c[nH]2)CC1` [Edicotinib]: the results for the “caspase 3/7 levels (cell death / apoptosis)” value (in the test with G795C iPSC-microglia; in test [1]; in the test with G795A iPSC-microglia [4]) were “no significant increase in caspase levels”, “significant levels of increased caspase” and “no significant increase in caspase levels”, respectively. Also, the figures for the “cell death (percent of live versus dead cells)” value (in [2]; in the test on G795A iPSC-microglia [3]) were “substantial cell death” and “little-to-no cell death”, respectively.

With `FC(F)(F)c1ccc(CNc2ccc(Cc3c[nH]c4ncc(Cl)cc34)cn2)cn1` [PLX3397], the “caspase 3/7 levels (cell death / apoptosis)” value is given as “complete resistance to cell death; also recorded: no significant increase in caspase levels” in the test on G795C iPSC-microglia, “robust dose-dependent induction of apoptosis; also recorded: significant levels of increased caspase” in [1] and “complete resistance to cell death; also recorded: no significant increase in caspase levels” in the test with G795A iPSC-microglia [4]. The “cell death (percent of live versus dead cells)” value in test [2] was “substantial cell death”; with G795A iPSC-microglia [3] it was “little-to-no cell death”. In addition, in the test with G795A xMGs, the “survival / expansion of transplanted human xMGs in mouse brain” value was “proliferate and expand from the initial injection sites”. Also, in the test on wild-type human xMGs, the “survival of transplanted human xMGs in mouse brain” value is listed as “only a handful of wild-type human xMGs survive”.

With `COc1ncc(F)cc1CNc1ccc(Cc2c[nH]c3ncc(C)cc23)c(F)n1` [PLX5622], the “transcriptomic alterations (FDR≤0.05; log2(FC)≥±1)” value is recorded as “failed to significantly alter gene expression” in test [5], “failed to significantly alter gene expression” in test [6] and “induced significant transcriptomic alterations” with WT microglia. Also, the “caspase 3/7 levels (cell death / apoptosis)” value in the test with G795C iPSC-microglia is “complete resistance to cell death; also recorded: no significant increase in caspase levels”; in test [1], “robust dose-dependent induction of apoptosis; also recorded: significant levels of increased caspase”; in the test with G795A iPSC-microglia [4], “complete resistance to cell death; also recorded: no significant increase in caspase levels”. For the same compound, the results for the “cell death (percent of live versus dead cells)” value (in test [2]; in the test on G795A iPSC-microglia [3]) were “substantial cell death” and “little-to-no cell death”, respectively.

Take `CNC(=O)c1cc(Oc2ccc3nc(N[C@@H]4CCCC[C@H]4O)sc3c2)ccn1` [BLZ945]: the “caspase 3/7 levels (cell death / apoptosis)” value is “no significant increase in caspase levels” in the test on G795C iPSC-microglia, “significant levels of increased caspase” in test [1] and “no significant increase in caspase levels” in the test on G795A iPSC-microglia [4]. For the same compound, the “cell death (percent of live versus dead cells)” value was “substantial cell death” in test [2] and “little-to-no cell death” in the test with G795A iPSC-microglia [3].
